Measurements: publication PMC12951562, “SH2scan: Mapping SH2 Domain-Ligand Binding Selectivity for Inhibitors and Degraders” (Journal of Medicinal Chemistry, 2026)
Where two headings read alike, the source gives them in different places. Non-standard residues stand in square brackets, D forms with d. Residues, ends and D or L forms follow the SMILES beside them. *: point of attachment. pY = N[C@@H](Cc1ccc(OP(=O)(O)O)cc1)C(=O)O; Caffeoyl = O=C(/C=C/c1ccc(O)c(O)c1)*

Columns and labels:
Assay type in all cases: binding
STAT5B(N642H) = target: T1, STAT5B(N642H) (Homo sapiens, UniProt P51692, N642H); experiment: biochemical
T1 construct: made in house; host or cells: HEK293 (transient transfection), unpurified extract
T1 sequence (P51692 1-787 N642H): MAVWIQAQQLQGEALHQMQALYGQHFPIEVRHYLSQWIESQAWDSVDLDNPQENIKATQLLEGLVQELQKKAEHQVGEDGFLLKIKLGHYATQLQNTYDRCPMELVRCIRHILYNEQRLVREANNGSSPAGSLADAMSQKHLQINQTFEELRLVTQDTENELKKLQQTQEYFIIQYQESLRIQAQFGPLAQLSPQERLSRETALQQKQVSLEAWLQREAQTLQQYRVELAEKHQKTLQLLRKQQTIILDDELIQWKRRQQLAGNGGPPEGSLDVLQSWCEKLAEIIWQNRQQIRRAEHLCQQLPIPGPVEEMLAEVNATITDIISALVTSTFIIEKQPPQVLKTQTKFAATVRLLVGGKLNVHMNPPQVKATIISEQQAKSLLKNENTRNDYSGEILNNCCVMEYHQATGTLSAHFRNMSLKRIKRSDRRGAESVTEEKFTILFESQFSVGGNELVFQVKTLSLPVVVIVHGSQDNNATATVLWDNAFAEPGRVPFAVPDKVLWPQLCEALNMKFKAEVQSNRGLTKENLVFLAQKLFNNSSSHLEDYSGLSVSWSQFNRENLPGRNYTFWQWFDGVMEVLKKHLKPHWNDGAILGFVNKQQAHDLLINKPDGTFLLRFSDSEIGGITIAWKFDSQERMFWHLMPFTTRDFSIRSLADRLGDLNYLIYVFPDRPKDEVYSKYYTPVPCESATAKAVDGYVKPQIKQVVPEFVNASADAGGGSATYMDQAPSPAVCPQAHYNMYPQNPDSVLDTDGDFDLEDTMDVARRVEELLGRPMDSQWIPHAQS

CSK = target: T2, CSK (Homo sapiens, UniProt P41240); experiment: biochemical; settings: primary screen, 10 μM
T2 construct: the DNA-tagged SH2 domain concentrations used in this study were <0.1 nM; made in house; host or cells: HEK293 (transient transfection; unpurified extract)
T2 sequence (P41240 82-171 limits assumed): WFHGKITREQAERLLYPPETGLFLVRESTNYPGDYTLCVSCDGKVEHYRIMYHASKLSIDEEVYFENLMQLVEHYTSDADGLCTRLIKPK

CBLB = target: T3, CBLB (Homo sapiens, UniProt Q13191); experiment: biochemical; settings: for percent of DMSO vehicle control: primary screen, 10 μM
T3 construct: the DNA-tagged SH2 domain concentrations used in this study were <0.1 nM; made in house; host or cells: HEK293 (transient transfection; unpurified extract)

PIK3R1(SH2dom.C-term.) = target: T4, PIK3R1(SH2dom.C-term.) (Homo sapiens, UniProt P27986); experiment: biochemical; settings: for remaining activity at 10 µM: read-out: percent of DMSO vehicle control
T4 construct: SH2dom.C-term. denotes SH2 domain closest to C-terminus of protein; made in house; host or cells: HEK293 (transient transfection, unpurified extract)

STAP2 = target: T5, STAP2 (Homo sapiens, UniProt Q9UGK3); experiment: biochemical
T5 construct: made in house; host or cells: HEK293 (transient transfection), unpurified extract
T5 sequence (Q9UGK3 1-403): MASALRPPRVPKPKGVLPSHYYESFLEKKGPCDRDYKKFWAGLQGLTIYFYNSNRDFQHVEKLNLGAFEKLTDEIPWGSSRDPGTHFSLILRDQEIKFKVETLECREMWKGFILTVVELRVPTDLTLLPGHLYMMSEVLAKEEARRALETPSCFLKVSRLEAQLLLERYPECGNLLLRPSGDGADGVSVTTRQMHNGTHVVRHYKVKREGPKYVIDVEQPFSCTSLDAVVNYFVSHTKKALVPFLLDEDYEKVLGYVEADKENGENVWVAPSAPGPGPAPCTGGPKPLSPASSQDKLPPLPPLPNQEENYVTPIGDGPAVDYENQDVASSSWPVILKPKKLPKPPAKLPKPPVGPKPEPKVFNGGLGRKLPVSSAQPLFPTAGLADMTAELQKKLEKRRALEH

PTPN11(SH2dom.N-term.) = target: T6, PTPN11(SH2dom.N-term.) (Homo sapiens, UniProt Q06124); settings: primary screen, 10 μM
T6 construct: SH2dom.N-term. denotes SH2 domain closest to N-terminus of protein; made in house; host or cells: HEK293 (transient transfection, unpurified extract)
T6 sequence (Q06124 6-102 limits assumed): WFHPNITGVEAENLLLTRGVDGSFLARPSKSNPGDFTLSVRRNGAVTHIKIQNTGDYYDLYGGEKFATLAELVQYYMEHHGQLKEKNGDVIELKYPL

STAT5A = target: T7, STAT5A (Homo sapiens, UniProt P42229); experiment: biochemical
T7 construct: made in house; host or cells: HEK293 (transient transfection), unpurified extract
T7 sequence (P42229 1-794): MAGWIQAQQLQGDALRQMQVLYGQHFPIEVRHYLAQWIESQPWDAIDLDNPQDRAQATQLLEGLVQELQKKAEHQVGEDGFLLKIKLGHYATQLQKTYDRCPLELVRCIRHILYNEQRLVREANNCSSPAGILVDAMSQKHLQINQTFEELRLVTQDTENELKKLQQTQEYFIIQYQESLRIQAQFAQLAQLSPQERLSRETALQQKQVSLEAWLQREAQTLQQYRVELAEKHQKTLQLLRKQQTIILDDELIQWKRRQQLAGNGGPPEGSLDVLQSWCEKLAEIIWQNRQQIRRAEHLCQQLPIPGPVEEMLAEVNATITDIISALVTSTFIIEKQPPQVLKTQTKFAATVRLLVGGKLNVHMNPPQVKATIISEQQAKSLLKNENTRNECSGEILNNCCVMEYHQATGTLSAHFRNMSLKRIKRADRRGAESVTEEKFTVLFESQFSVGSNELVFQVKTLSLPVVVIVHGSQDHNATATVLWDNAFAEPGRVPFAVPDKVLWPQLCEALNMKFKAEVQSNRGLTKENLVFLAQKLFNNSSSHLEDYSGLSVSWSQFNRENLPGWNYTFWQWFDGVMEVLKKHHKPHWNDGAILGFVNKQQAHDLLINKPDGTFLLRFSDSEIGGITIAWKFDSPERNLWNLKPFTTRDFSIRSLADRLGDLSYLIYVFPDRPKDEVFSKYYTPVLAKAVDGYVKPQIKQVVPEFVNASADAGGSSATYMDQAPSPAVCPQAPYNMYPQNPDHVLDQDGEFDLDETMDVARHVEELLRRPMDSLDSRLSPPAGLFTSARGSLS

STAT3 = target: T8, STAT3 (Homo sapiens, UniProt P40763); experiment: biochemical
T8 construct: made in house; host or cells: HEK293 (transient transfection), unpurified extract

[1] = target: T9, STAT3(N567K)-nonphosphorylated (Homo sapiens, UniProt P40763, N567K); experiment: biochemical
T9 construct: made in house; host or cells: HEK293 (transient transfection), unpurified extract, dephosphorylated by endogenous phosphatases

[2] = read-out: percent of DMSO vehicle control
[3] = primary screen, 10 μM, read-out: percent of DMSO vehicle control

SMILES	percent of DMSO vehicle control (CSK) [%]	percent of DMSO vehicle control (CBLB) [%]	percent of DMSO vehicle control (PTPN11(SH2dom.N-term.)) [%]	percent of DMSO vehicle control at 10 µM (STAT5B(N642H); [2]) [%]	Kd (PIK3R1(SH2dom.C-term.)) [µM]	remaining activity at 10 µM (PIK3R1(SH2dom.C-term.)) [%]	percent of DMSO vehicle control at 10 µM (STAP2; [2]) [%]	percent of DMSO vehicle control at 10 µM (STAT5A; [2]) [%]	percent of DMSO vehicle control at 10 µM (STAT3; [2]) [%]	percent of DMSO vehicle control at 10 µM [1, 2] [%]	other results
CC[C@H](C)[C@H](NC(=O)[C@H](CCC(=O)O)NC(=O)[C@H](CCC(=O)O)NC(=O)[C@H](Cc1ccc(OP(=O)(O)O)cc1)NC(C)=O)C(=O)N[C@@H](CCC(=O)O)C(N)=O [Ac-pYEEIE-NH2] (Ac-[pY]EEIE-NH2)	106.4	116.1	116.6								percent of DMSO vehicle control (STAT5B(N642H); primary screen, 10 μM): 115.5%; percent of DMSO vehicle control (PIK3R1(SH2dom.C-term.); primary screen, 10 μM): 35.8±9.3%; percent of DMSO vehicle control (STAP2; primary screen, 10 μM): 80.1±5.7%; percent of DMSO vehicle control (STAT5A; primary screen, 10 μM): 94.4±4.9%; percent of DMSO vehicle control (STAT3; primary screen, 10 μM): 151.4%; percent of DMSO vehicle control ([1]; primary screen, 10 μM): 94.9±0.8%
CC(=O)N[C@@H](Cc1ccc(CP(=O)(O)O)cc1)C(=O)NC1(C(=O)N[C@@H](CC(N)=O)C(=O)NCCCc2c(O)ccc3ccccc23)CCCCC1 [CGP78850]	119.6±4.5	122.1±4.2	125.2±9.1	107 ± 9.8	0.15	0	86 ± 7.4	84.9 ± 21	80.9 ± 6.4	78.3 ± 2	
CC[C@H](C)[C@H](NC(=O)[C@H](CCC(=O)O)NC(=O)[C@H](CCC(=O)O)NC(=O)[C@H](Cc1ccc(OP(=O)(O)O)cc1)NC(=O)/C=C/c1ccc(O)c(O)c1)C(=O)N[C@@H](CCC(=O)O)C(=O)O [Caffeic acid-pYEEIE] (Caffeoyl-[pY]EEIE-OH)	103.0±4.8	32.7±22.6	92.8±10.0	9.4 ± 1	0.14 ± 0.1	0.2 ± 0.1	58.7 ± 7.4	6.2 ± 0.4	102 ± 22.8	91 ± 2.3	Kd (STAT5B(N642H)): 2.4 ± 2.3 µM; Kd (CBLB): 5.7 ± 1.4 µM; Kd (STAP2): 23.2 µM; Kd (STAT5A): 4.02 ± 1.5 µM
O=C(CCl)Nc1cccc(CNC(=O)[C@H](Cc2ccc(OP(=O)(O)O)cc2)NC(=O)Cc2ccc(F)cc2)c1 [MN551]	105.0	86.8±3.2	85.0±0.9								remaining activity at 10 µM (STAT5B(N642H); [3]): 76.9%; remaining activity at 10 µM (PIK3R1(SH2dom.C-term.); primary screen, 10 μM): 52.4%; remaining activity at 10 µM (STAP2; [3]): 143%; remaining activity at 10 µM (STAT5A; [3]): 39 ± 0.8%; remaining activity at 10 µM (STAT3; [3]): 67.8%; remaining activity at 10 µM [1, 3]: 86.5 ± 6.2%
